For one assay, the target named is PldA (Pseudomonas aeruginosa, UniProt Q9HYC2). It is filed as biochemical.
Assay [1] concerns the target recombinant human NAPE-PLD (Homo sapiens, UniProt Q6IQ20). In words: NAPE-PLD activity assay. It is filed as biochemical. As to conditions: 20 μM.
Assay [2] deals with T1, PLD1 (Homo sapiens, UniProt Q13393).
T1 sequence (Q13393 1-1074): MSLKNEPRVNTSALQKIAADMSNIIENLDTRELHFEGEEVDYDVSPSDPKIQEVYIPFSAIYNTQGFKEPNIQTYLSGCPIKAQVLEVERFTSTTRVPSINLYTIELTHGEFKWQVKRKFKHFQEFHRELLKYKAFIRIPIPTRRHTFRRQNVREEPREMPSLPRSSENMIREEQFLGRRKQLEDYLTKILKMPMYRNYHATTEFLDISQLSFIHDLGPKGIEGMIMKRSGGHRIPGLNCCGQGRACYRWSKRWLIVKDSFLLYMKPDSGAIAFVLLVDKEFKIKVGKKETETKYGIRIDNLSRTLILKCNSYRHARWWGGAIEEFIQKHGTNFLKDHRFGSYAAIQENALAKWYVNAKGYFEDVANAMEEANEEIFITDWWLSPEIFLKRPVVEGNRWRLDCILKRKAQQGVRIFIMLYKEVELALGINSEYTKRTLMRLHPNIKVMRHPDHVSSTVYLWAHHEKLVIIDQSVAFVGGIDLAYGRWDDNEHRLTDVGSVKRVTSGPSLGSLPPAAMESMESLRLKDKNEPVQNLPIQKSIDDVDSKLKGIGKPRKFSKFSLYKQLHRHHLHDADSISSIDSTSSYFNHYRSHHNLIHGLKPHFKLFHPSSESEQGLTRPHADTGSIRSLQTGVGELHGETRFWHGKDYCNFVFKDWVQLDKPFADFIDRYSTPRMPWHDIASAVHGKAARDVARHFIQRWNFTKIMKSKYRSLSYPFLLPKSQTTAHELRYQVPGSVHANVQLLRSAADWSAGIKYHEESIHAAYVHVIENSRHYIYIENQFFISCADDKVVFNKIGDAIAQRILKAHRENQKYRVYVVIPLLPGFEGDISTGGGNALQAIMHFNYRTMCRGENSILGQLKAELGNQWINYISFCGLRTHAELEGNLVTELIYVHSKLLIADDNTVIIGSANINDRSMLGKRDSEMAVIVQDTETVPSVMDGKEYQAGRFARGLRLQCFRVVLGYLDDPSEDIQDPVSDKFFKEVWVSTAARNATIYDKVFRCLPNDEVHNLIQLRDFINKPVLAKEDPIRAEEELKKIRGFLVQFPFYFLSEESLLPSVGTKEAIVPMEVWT
It is filed as cell-based. As to conditions: read-out: mammalian PLD1 IC50.

The target of assay [3] is T1, PLD1. As to conditions: cited from earlier work.
The next assay addresses PLD2 (Homo sapiens, UniProt O14939). To be noted: cited from earlier work.

In general, IC50 refers to the concentration that gives 50% inhibition.

Chain of recombinant human NAPE-PLD (Q6IQ20 whole entry): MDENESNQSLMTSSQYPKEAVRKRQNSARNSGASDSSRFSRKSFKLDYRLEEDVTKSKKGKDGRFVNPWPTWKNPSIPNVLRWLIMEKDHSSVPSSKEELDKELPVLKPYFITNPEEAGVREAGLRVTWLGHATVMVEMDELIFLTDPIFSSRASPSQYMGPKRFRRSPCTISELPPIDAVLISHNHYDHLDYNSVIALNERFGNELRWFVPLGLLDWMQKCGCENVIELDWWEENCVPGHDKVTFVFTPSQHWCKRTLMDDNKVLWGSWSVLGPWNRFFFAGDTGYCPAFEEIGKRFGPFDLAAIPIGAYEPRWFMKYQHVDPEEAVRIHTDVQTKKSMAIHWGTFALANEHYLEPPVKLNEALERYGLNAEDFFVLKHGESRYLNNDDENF
Chain of PldA (Q9HYC2 1-1099): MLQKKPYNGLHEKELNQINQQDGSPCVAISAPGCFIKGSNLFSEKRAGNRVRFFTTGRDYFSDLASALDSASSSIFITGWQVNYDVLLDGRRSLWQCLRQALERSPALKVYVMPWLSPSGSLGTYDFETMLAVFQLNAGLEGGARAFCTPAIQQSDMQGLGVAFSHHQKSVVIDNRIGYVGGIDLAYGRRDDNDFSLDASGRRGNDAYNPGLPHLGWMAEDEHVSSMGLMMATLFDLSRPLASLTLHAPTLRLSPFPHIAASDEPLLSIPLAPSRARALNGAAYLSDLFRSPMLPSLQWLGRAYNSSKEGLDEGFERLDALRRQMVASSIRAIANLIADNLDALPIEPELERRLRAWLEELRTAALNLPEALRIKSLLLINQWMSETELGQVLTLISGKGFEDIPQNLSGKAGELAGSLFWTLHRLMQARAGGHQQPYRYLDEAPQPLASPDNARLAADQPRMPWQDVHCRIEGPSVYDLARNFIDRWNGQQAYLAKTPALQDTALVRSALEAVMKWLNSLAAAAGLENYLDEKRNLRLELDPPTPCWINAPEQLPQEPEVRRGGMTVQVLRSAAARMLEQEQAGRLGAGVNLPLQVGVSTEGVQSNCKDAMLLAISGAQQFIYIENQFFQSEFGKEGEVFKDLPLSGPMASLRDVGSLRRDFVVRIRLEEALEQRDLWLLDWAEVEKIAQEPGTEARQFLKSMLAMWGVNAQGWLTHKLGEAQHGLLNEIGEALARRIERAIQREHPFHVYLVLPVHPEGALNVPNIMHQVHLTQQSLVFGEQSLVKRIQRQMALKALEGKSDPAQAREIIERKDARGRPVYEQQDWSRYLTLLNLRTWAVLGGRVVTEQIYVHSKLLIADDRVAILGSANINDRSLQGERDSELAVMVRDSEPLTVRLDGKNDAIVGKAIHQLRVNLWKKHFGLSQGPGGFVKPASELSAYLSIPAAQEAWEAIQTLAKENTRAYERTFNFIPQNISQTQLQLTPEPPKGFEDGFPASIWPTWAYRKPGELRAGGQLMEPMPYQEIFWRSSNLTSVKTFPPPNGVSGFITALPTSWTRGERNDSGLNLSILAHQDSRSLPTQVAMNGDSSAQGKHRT
Chain of PLD2 (O14939 whole entry): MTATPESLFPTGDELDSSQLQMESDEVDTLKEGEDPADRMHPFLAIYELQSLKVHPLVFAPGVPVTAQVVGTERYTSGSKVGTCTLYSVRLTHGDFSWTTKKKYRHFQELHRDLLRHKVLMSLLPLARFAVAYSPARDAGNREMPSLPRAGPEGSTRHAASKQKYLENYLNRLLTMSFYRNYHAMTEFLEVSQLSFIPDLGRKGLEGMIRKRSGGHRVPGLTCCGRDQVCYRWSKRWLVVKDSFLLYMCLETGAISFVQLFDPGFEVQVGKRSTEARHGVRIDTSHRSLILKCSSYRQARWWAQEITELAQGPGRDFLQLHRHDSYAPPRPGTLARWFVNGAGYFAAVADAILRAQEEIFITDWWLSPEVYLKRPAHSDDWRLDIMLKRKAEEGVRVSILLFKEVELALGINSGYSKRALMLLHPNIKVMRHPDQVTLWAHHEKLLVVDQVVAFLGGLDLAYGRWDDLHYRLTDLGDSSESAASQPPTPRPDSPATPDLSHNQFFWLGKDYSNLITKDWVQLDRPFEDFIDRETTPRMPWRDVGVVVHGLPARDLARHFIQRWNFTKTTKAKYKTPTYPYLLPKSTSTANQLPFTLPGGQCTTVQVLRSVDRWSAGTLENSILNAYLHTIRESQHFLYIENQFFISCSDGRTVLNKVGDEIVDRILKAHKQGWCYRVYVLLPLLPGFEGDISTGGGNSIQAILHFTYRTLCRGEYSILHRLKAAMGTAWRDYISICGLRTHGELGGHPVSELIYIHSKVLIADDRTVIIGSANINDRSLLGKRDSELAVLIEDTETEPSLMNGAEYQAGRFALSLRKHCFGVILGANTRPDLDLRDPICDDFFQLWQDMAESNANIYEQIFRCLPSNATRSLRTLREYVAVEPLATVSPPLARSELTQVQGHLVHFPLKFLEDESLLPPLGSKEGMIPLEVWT

Turning to `O=C(c1ccc(OCCN2CCCCC2)cc1)c1c(-c2ccc(O)cc2)sc2cc(O)ccc12` [Compound 7, raloxifene], the “fold more potent at PldA than inhibitors 2, 3 and 1” value on PldA is reported as 5- to 10 fold. Moreover, in assay [1], the “inhibition of NAPE-PLD activity, single point” value is recorded as “not to inhibit”.

Turning to `CC/C(=C(\c1ccccc1)c1ccc(OCCN(C)C)cc1)c1ccccc1` [Compound 8, tamoxifen], the IC50 on PLD1 [2] is over 20 µM. Moreover, the “PLD1 IC50” value at PLD1 [3] is “no effect”. For the same compound, the “PLD2 IC50” value at PLD2 is recorded as “stimulated”.
